One series concerns mice. Also noted: method as in PMID 12657261. Particulars: formalin test in mice, subcutaneous injection, cited from earlier work.
The target of a further series is human ORL1 receptor. Also on record: method as in PMID 16321540. Particulars: read-out: IC50 ± SEM, ORL1 receptor, [3H]NOC; cell membrane expressing human ORL1 receptor in Hek-293 cells; cited from earlier work.
In another series the test system is guinea pig ileum (GPI). Also noted: method as in PMID 16321540. The following applies: cited from earlier work; for IC50: DYN analogs, read-out: GPI assay IC50 ± SEM; for Ke value of receptor selective antagonist CTAP (μ) / Ke value of receptor selective antagonist nor-BNI (κ) / Ke value of receptor selective antagonist N,N(Me)2Dmt-Tic-OH (δ): GPI assay, antagonist against the peptide.

For another series, the system named is Aminopeptidase M. Also on record: method as in PMID 16321540. The following applies: determined by HPLC; cited from earlier work.
On the set-up of series [1]: method as in PMID 16321540. The following applies: determined by HPLC; cited from earlier work.
The target in series [2] is μ-opioid receptor. The following applies: cited from earlier work; for IC50: rat brain homogenate, read-out: IC50 ± SEM, opioid receptor, [3H]DAMGO (μ); for Ki: versus [3H]DAMGO, read-out: Receptor binding affinity, Ki ± S.E., μ.
Series [3] deals with δ-opioid receptor. The following applies: cited from earlier work; for IC50: rat brain homogenate, read-out: IC50 ± SEM, opioid receptor, [3H]DT (δ); for Ki: versus [3H]DT, read-out: Receptor binding affinity, Ki ± S.E., δ.
Another series has as its target κ-opioid receptor. Also noted: method as in PMID 16321540. The following applies: guinea pig brain homogenate; read-out: IC50 ± SEM, opioid receptor, [3H]U-69593 (κ); cited from earlier work.
Series [4] concerns δ-opioid receptor. Kind of series: δ-opioid receptor binding, brain homogenate, versus [3H]DT. The following applies: ratio of Ki values. Also noted: species or system rat.
Experimental: The receptor-binding affinities of synthetic analogs were determined using rat brain, as previously reported [45].
The subject of series [5] is MVD (δ): mouse vas deferens, δ-receptors. Kind of series: isolated mouse vas deferens (MVD) assay. The class given is cell-based. The following applies: ratio of IC50 values. As for the experimental part:
(§1) The receptor-binding affinities of synthetic analogs were determined using rat brain, as previously reported. […] The GPI tissue contains predominantly μ-receptors, while MVD tissue contains δ-receptors. […] In contrast, 11 was devoid of activity in both assays, as expected from the binding data. […] This analog turned out to be a potent μ-antagonist and a weak δ-antagonist. […] The results of 13 are in line with observations that Dmt-D-Phe-NH2 and its C-terminally extended analog are μ-receptor antagonists.

In series [6] the test system is GPI (μ): guinea pig ileum, predominantly μ-receptors. The following applies: cited from earlier work; for Ke of CTAP against the peptide, GPI: antagonist CTAP (μ), GPI assay.
Series [7] addresses MVD (δ): mouse vas deferens, δ-receptors. Particulars: cited from earlier work; for Ke of CTAP against the peptide, MVD: antagonist CTAP (μ); for Ke of CTAP against the peptide, MVD / Ke of N,N(Me)2Dmt-Tic-OH against the peptide, MVD: MVD assay; for Ke of N,N(Me)2Dmt-Tic-OH against the peptide, MVD: antagonist N,N(Me)2Dmt-Tic-OH (δ).
Series [8] relates to μ-opioid receptor. Kind of series: μ-opioid receptor binding, brain homogenate, versus [3H]DAMGO. Also on record: species or system rat. Particulars: ratio of Ki values. As for the experimental part:
as §1
Two methyl groups on Dmp^4 may interfere with the receptor interaction due to a reduction in conformational flexibility and/or enhanced lipophilicity. To further examine the usefulness of Dmp-containing DYN peptides as κ-opioid receptor ligands, the in vitro bioactivity of DYN peptides was determined using the GPI assay (Table 5).

Series [9] concerns GPI (μ): guinea pig ileum, predominantly μ-receptors. Kind of series: isolated guinea pig ileum (GPI) assay. Format: cell-based. Particulars: ratio of IC50 values. As for the experimental part: as §1

Where two headings read alike, the source gives them in different places. No end group written: not given here. Some results are limits rather than exact numbers.

Consider `CN1CC[C@]23c4c5ccc(O)c4O[C@H]2[C@@H](O)C=C[C@H]3[C@H]1C5` [Morphine, reference compound], for which, in the series on mice, the “ED50, First phase” value was 3811 nmol/kg and the “ED50, Second phase” value is recorded as 7319 nmol/kg.

Turning to “DYN(1-13)-NH2 (YGGFLRRIRPKLK-NH2; UniProt P01213 207-219, looked up, fragment) [parent peptide, dynorphin A (1-13) amide, reference compound]”, the IC50 (usually the concentration at which inhibition is half-maximal) was 18.8 ± 3.01 nM on human ORL1 receptor and 3.14 ± 1.13 nM with guinea pig ileum (GPI). Moreover, in the series with Aminopeptidase M, the “Half-life time, Aminopeptidase M” value is 15.5 min. In [1], the “Half-life time, Rat brain homogenate” value was 435 min.

Met-enkephalin [reference compound]: the “Half-life time, Aminopeptidase M” value with Aminopeptidase M is less than 5 min. For the same molecule, the “Half-life time, Rat brain homogenate” value in series [1] is recorded as 8.5 min.

As to “Phe-Gly-Gly-Phe-Thr-Gly-Ala-Arg-Lys-Ser-Ala-Arg-Lys-Leu-Ala-Asn-Gln [NOC, reference compound]”, the IC50 on μ-opioid receptor [2] is 1540 ± 601 nM; on δ-opioid receptor [3], greater than 10000 nM; at κ-opioid receptor, 643 ± 218 nM.

On to [Dmp^1,4]DYN(1-13)-NH2 [compound 28], for which the half-maximal inhibitory concentration (IC50) at μ-opioid receptor [2] is 251 ± 56.3 nM; on δ-opioid receptor [3], 415 ± 185 nM; at human ORL1 receptor it was 51.5 ± 1.62 nM; on κ-opioid receptor it was 5.45 ± 1.65 nM; with guinea pig ileum (GPI), 1340 ± 303 nM. Further, the “Ke value of receptor selective antagonist CTAP (μ)” value with guinea pig ileum (GPI) is 595 nM. The “Ke value of receptor selective antagonist nor-BNI (κ)” value with guinea pig ileum (GPI) is on record as 809 nM. Also, the “Half-life time, Rat brain homogenate” value in [1] is listed as 770 min.

On to [Dmp^1,4]NOC(1-13)-NH2 [compound 31], for which the IC50 on μ-opioid receptor [2] is 56.8 ± 12.3 nM; on δ-opioid receptor [3], 3410 ± 990 nM; at human ORL1 receptor it was 21.3 ± 3.2 nM; at κ-opioid receptor, 100 ± 29 nM. In addition, in series [1], the “Half-life time, Rat brain homogenate” value is 27.1 min.

Consider [Dmp^1]DYN(1-13)-NH2 [compound 27], for which the IC50 on μ-opioid receptor [2] was 16.4 ± 2.35 nM. Also, the 50% inhibitory concentration (IC50) on δ-opioid receptor [3] was 10.1 ± 6.02 nM. Further, the concentration for half-maximal inhibition (IC50) on human ORL1 receptor was 6.6 ± 0.952 nM. In the series on guinea pig ileum (GPI), the IC50 was 306 ± 68 nM, the “Ke value of receptor selective antagonist CTAP (μ)” value is recorded as 115 nM, the “Ke value of receptor selective antagonist N,N(Me)2Dmt-Tic-OH (δ)” value is greater than 1000 nM and the “Ke value of receptor selective antagonist nor-BNI (κ)” value is 10 nM. Further, in the series with Aminopeptidase M, the “Half-life time, Aminopeptidase M” value is reported as greater than 30 min. Besides, the “Half-life time, Rat brain homogenate” value in [1] was 577 min.

For the molecule [Dmp^1]ENK [compound 32], in the series with δ-opioid receptor [4] (Table 6), the μ/δ was determined as 3.19. Also, the GPI/MVD in series [5] (Table 6) turned out to be 10.66. Also, the Ki – broadly, the dissociation constant of the complex between target and ligand, obtained from inhibition or displacement – is 5.94 ± 1.45 nM at μ-opioid receptor [2] (Table 6) and 1.86 ± 0.61 nM on δ-opioid receptor [3] (Table 6). The IC50 in series [6] (Table 6) is 710 ± 69 nM; in series [7] (Table 6), 66.6 ± 12.7 nM.

In the case of [Dmp^1]NOC(1-13)-NH2 [compound 30], the concentration for half-maximal inhibition (IC50) is 25 ± 6.5 nM on μ-opioid receptor [2], 292 ± 61 nM on δ-opioid receptor [3], 0.814 ± 0.09 nM at human ORL1 receptor and 38.8 ± 16.7 nM on κ-opioid receptor. For the same molecule, in the series with Aminopeptidase M, the “Half-life time, Aminopeptidase M” value is reported as 28 min. Further, the “Half-life time, Rat brain homogenate” value in series [1] is recorded as 60.3 min.

Regarding [Dmp^1]YRFB [compound 24], the δ/μ with μ-opioid receptor [8] (Table 6) was determined as 41284. In addition, in series [9] (Table 6), the MVD/GPI stood at 19. Besides, on μ-opioid receptor [2] (Table 6), the Ki was 0.0623 ± 0.014 nM. In addition, at δ-opioid receptor [3] (Table 6), the Ki was 2570 ± 947 nM. Besides, in [6] (Table 6), the half-maximal inhibitory concentration (IC50) was 9.88 ± 1.04 nM. The “Ke of CTAP against the peptide, GPI” value in series [6] is given as 25.1 nM. The IC50 in series [7] (Table 6) was 188 ± 52 nM. In addition, in [7], the “Ke of CTAP against the peptide, MVD” value is given as 13.4 nM and the “Ke of N,N(Me)2Dmt-Tic-OH against the peptide, MVD” value is reported as greater than 1000 nM. In the series on mice, the “ED50, First phase” value is recorded as 1946 nmol/kg and the “ED50, Second phase” value is 1529 nmol/kg.

[Dmp^3]YRFB [compound 22]: the δ/μ in the series on μ-opioid receptor [8] (Table 1) is on record as 15543. Besides, the MVD/GPI in [9] (Table 1) is 16.7. Further, at μ-opioid receptor [2] (Table 1, rat brain), the inhibitory constant (Ki) is 0.035 ± 0.0167 nM. Also, the Ki at δ-opioid receptor [3] (Table 1, rat brain) is 544 ± 143 nM. The 50% inhibitory concentration (IC50) in [6] (Table 1) is 1.67 ± 0.24 nM. The “Ke of CTAP against the peptide, GPI” value in series [6] is 22.7 nM. Moreover, the half-inhibitory concentration (IC50) in series [7] (Table 1) is 27.9 ± 5 nM. In series [7], the “Ke of CTAP against the peptide, MVD” value is listed as 11.4 nM and the “Ke of N,N(Me)2Dmt-Tic-OH against the peptide, MVD” value was greater than 1000 nM. For the same molecule, in the series on mice, the “ED50, First phase” value was 98.6 nmol/kg and the “ED50, Second phase” value is 113 nmol/kg.

With [Dmp^4]DYN(1-13)-NH2 [compound 26], the IC50 on μ-opioid receptor [2] was 22.4 ± 10.2 nM; at δ-opioid receptor [3], 931 ± 723 nM; on human ORL1 receptor, 188 ± 18.2 nM; at κ-opioid receptor, 0.044 ± 0.035 nM; in the series on guinea pig ileum (GPI), 32.2 ± 9.16 nM. The “Ke value of receptor selective antagonist CTAP (μ)” value in the series on guinea pig ileum (GPI) is recorded as 108 nM. In the series with guinea pig ileum (GPI), the “Ke value of receptor selective antagonist N,N(Me)2Dmt-Tic-OH (δ)” value is on record as 198 nM. In the series on guinea pig ileum (GPI), the “Ke value of receptor selective antagonist nor-BNI (κ)” value was 0.63 nM. Besides, the “Half-life time, Rat brain homogenate” value in series [1] is recorded as 315 min.

In the case of [Dmp^4]ENK [compound 10], the μ/δ in the series on δ-opioid receptor [4] (Table 1) was 0.07. For the same molecule, the GPI/MVD in series [5] (Table 1) was determined as 1.29. Besides, the inhibitory constant (Ki) on μ-opioid receptor [2] (Table 1, rat brain) was 1.25 ± 0.29 nM; on δ-opioid receptor [3] (Table 1, rat brain), 17.7 ± 4.2 nM. The IC50 in [6] (Table 1) was 808 ± 101 nM; in series [7] (Table 1), 624 ± 103 nM.

On to [Dmp^4]NOC(1-13)-NH2 [compound 29], for which the half-inhibitory concentration (IC50) at μ-opioid receptor [2] is 629 ± 433 nM; on δ-opioid receptor [3], greater than 10000 nM; on human ORL1 receptor, 51.6 ± 12.9 nM; at κ-opioid receptor, 299 ± 63 nM. The “Half-life time, Rat brain homogenate” value in series [1] is listed as 33.6 min.

For the molecule [Dmt^1]DT [compound 36], the μ/δ with δ-opioid receptor [4] (Table 6) is given as 21.8. For the same molecule, the GPI/MVD in series [5] (Table 6) was 1700. Moreover, the inhibitory constant (Ki) on μ-opioid receptor [2] (Table 6) is 0.261 ± 0.06 nM; at δ-opioid receptor [3] (Table 6), 0.012 ± 0.002 nM. The IC50 in series [6] (Table 6) was 88.4 ± 22.7 nM; in series [7] (Table 6), 0.052 ± 0.007 nM.

The record behind these values is article PMC4412257, “2′,6′-Dimethylphenylalanine: A Useful Aromatic Amino Acid Surrogate for Tyr or Phe Residue in Opioid Peptides” (International Journal of Medicinal Chemistry, 2012).
